From patent US20130252988A1, “COMPOSITIONS AND METHODS FOR TREATING MYELOFIBROSIS” (TARGEGEN, INC., priority 2010, published 2013)
Entries after “also recorded” stand apart in the source; their conditions may differ. Structures can show the parent of a compound that is named as a salt. Where two headings read alike, the source gives them in different places.

Experiments:
bone marrow = experiment: Bone marrow histology (cellularity, fibrosis); assay type: in vivo, human
Procedure: Responses were measured every 4 weeks per International Working Group for MPN Research and Treatment (IWG-MRT) criteria (Tefferi A et al., Blood 108:1497-1503, 2006). Assessment of bone marrow histology was performed at baseline and every 24 weeks of therapy. Changes in JAK2V617F allele burden in the granulocyte fraction of peripheral blood were measured as previously described (Kittur J et al., Cancer 109:2279-2284, 2007); the assessments were at baseline and every 4 weeks during the first 6 cycles, and every 6th cycle of therapy in the extension study.

[1] = system: subjects with myelofibrosis (constitutional symptoms); experiment: Constitutional symptoms rated by subjects (early satiety, fatigue, night sweats, cough, pruritus); assay type: in vivo
Description: The data here reflected changes from symptoms present at baseline. […] Severity was rated by subjects on a scale of 1-10: 0=absent; 1-3=mild; 4-7=moderate; 8-10=severe. Improved=downgrade to absent or to mild or moderate from more severe rating at baseline.
Symptoms were categorized as “absent” (score=0), “mild” (score=1-3). “moderate” (score=4-7), or “severe” (score=8-10).

[2] = Plasma pharmacokinetics of TG101348, non-compartmental analysis; assay type: in vivo, human; settings: for AUC(0-t) / Cmax / half-life / Tmax: human, plasma; for Tmax: median
Procedure: The concentration-time curves of TG101348 in plasma were evaluated by a non-compartmental analysis (with the use of WinNonlin® software, version 5.2).

[3] = system: IL-6, IL-8, IL-2 and TNF-a; experiment: Cytokine levels, multiplexed sandwich ELISAs; assay type: in vivo, human
Procedure: Samples for cytokine measurement were collected at baseline and every 4 weeks thereafter. Cytokine levels were measured using multiplexed sandwich ELISAs (Millipore, St. Charles, Mo.).

[4] = MTD cohort, after 1 cycle (n=12)
[5] = MTD cohort, after 1 cycle, 8 subjects at baseline
[6] = MTD cohort, after 6 cycles (n=16)
[7] = oral, 30 mg/day (n = 3), multiple daily doses, Cycle 1, Day 28, mean
[8] = oral, 60 mg/day (n = 3), multiple daily doses, Cycle 1, Day 28, mean
[9] = oral, 120 mg/day (n = 3), multiple daily doses, Cycle 1, Day 28, mean
[10] = oral, 240 mg/day (n = 3), multiple daily doses, Cycle 1, Day 28, mean
[11] = oral, 360 mg/day (n = 3), multiple daily doses, Cycle 1, Day 28, mean
[12] = oral, 520 mg/day (n = 3), multiple daily doses, Cycle 1, Day 28, mean
[13] = oral, 680 mg/day (n = 27), multiple daily doses, Cycle 1, Day 28, mean
[14] = oral, 800 mg/day (n = 5), multiple daily doses, Cycle 1, Day 28, mean
[15] = over a 27-fold increase in dose

Compound: Cc1cnc(Nc2ccc(OCCN3CCCC3)cc2)nc1Nc1cccc(S(=O)(=O)NC(C)(C)C)c1 [TG101348, N-tert-butyl-3-[(5-methyl-2-{[4-(2-pyrrolidin-1-ylethoxy)phenyl]amino}pyrimidin-4-yl)amino]benzenesulfonamide dihydrochloride monohydrate]
- Bone marrow fibrosis grade (bone marrow; after 18 cycles, person, V617F negative PMF, 3+ at baseline, starting dose 240, follow-up 440 mg/day): 0
- Bone marrow cellularity (bone marrow; after 18 cycles, person, V617F negative PMF, 60% at baseline, starting dose 30, follow-up 520 mg/day): 5-10%
- BM cellularity and reticulin fibrosis with extended treatment (bone marrow; preliminary observations): reduction in BM cellularity and reticulinfibrosis
- Subjects who reported new onset of =1 symptom during the study ([1]; FIG. 4): 18 subjects
- Night sweats: subjects with complete resolution ([1]; MTD cohort, after 1 cycle): 64%
- Cough: subjects reporting improvement [1, 4]: 75%
- Cough: subjects with complete resolution [1, 4]: 67%
- Pruritus: subjects with complete resolution [1, 5]: 50%
- Pruritus: subjects with improvement [1, 5]: 75%
- Early satiety: subjects with complete resolution ([1]; MTD cohort, after 2 cycles (n=27)): 56%
- Night sweats: subjects with complete resolution ([1]; MTD cohort, after 6 cycles (n=9)): 89%
- Fatigue: subjects reporting improvement [1, 6]: 63%
- Fatigue: subjects with complete resolution [1, 6]: 25%
- Effect on MF-associated constitutional symptoms ([1]; early satiety, fatigue, cough, pruritus, night sweats, baseline versus last visit, dihydrochloride monohydrate): clinically significant benefit or resolution of constitutional symptoms; also recorded: able to improve the MF-associated constitutional symptoms; also recorded: remarkable activity against MF-associated constitutional symptoms, pruritus and cachexia
- Subjects with new-onset symptoms resolved by last follow-up visit ([1]; of the 18 with new onset, FIG. 4): 12 subjects
- Pruritus in one subject ([1]; subject with JAK2V617F-positive PMF, started at 680 mg/day): complete resolution of pruritus
- Dose proportionality of plasma PK parameters (Cmax and AUC0-t) ([2]; 30 to 800 mg/day): greater than dose-proportional increases
- AUC(0-t) [2, 7]: 807 ng·h/mL
- Cmax [2, 7]: 81.8 ng/mL
- half-life ([2]; oral, 30 mg/day (n = 3), multiple daily doses, Cycle 1, Day 28, mean, read-out: T1/2 (terminal half-life) (converted)): 20.9 h
- Tmax ([2]; oral, 30 mg/day (n = 3), multiple daily doses, Cycle 1, Day 28): 2 h
- AUC(0-t) [2, 8]: 2430 ng·h/mL
- Cmax [2, 8]: 257 ng/mL
- half-life ([2]; oral, 60 mg/day (n = 3), multiple daily doses, Cycle 1, Day 28, mean, read-out: T1/2 (terminal half-life) (converted)): 15.7 h
- Tmax ([2]; oral, 60 mg/day (n = 3), multiple daily doses, Cycle 1, Day 28): 1 h
- AUC(0-t) [2, 9]: 7650 ng·h/mL
- Cmax [2, 9]: 557 ng/mL
- half-life ([2]; oral, 120 mg/day (n = 3), multiple daily doses, Cycle 1, Day 28, mean, read-out: T1/2 (terminal half-life) (converted)): 24.4 h
- Tmax ([2]; oral, 120 mg/day (n = 3), multiple daily doses, Cycle 1, Day 28): 2 h
- AUC(0-t) [2, 10]: 26200 ng·h/mL
- Cmax [2, 10]: 1800 ng/mL
- half-life ([2]; oral, 240 mg/day (n = 3), multiple daily doses, Cycle 1, Day 28, mean, read-out: T1/2 (terminal half-life) (converted)): 20.8 h
- Tmax ([2]; oral, 240 mg/day (n = 3), multiple daily doses, Cycle 1, Day 28): 2 h
- AUC(0-t) [2, 11]: 23900 ng·h/mL
- Cmax [2, 11]: 1720 ng/mL
- half-life ([2]; oral, 360 mg/day (n = 3), multiple daily doses, Cycle 1, Day 28, mean, read-out: T1/2 (terminal half-life) (converted)): 21.4 h
- Tmax ([2]; oral, 360 mg/day (n = 3), multiple daily doses, Cycle 1, Day 28): 2 h
- AUC(0-t) [2, 12]: 61700 ng·h/mL
- Cmax [2, 12]: 3890 ng/mL
- half-life ([2]; oral, 520 mg/day (n = 3), multiple daily doses, Cycle 1, Day 28, mean, read-out: T1/2 (terminal half-life) (converted)): 20.9 h
- Tmax ([2]; oral, 520 mg/day (n = 3), multiple daily doses, Cycle 1, Day 28): 4 h
- AUC(0-t) [2, 13]: 55100 ng·h/mL
- Cmax [2, 13]: 3060 ng/mL
- half-life ([2]; oral, 680 mg/day (n = 27), multiple daily doses, Cycle 1, Day 28, mean, read-out: T1/2 (terminal half-life) (converted)): 33.7 h
- Tmax ([2]; oral, 680 mg/day (n = 27), multiple daily doses, Cycle 1, Day 28): 4 h
- AUC(0-t) [2, 14]: 70800 ng·h/mL
- Cmax [2, 14]: 4380 ng/mL
- half-life ([2]; oral, 800 mg/day (n = 5), multiple daily doses, Cycle 1, Day 28, mean, read-out: T1/2 (terminal half-life) (converted)): 24 h
- Tmax ([2]; oral, 800 mg/day (n = 5), multiple daily doses, Cycle 1, Day 28): 2.25 h
- half-life ([2]; oral, across all doses, read-out: Terminal phase half-life at steady state): 16 to 34 h
- Time after dosing at which peak plasma concentration was achieved ([2]; oral, once daily): 1 to 4 h
- Increase in mean steady-state AUC0-t [2, 15]: ~88 fold
- Increase in mean steady-state Cmax [2, 15]: approximately 54 fold
- Serum EPO and TPO levels relative to baseline ([3]; after treatment initiation, data not shown): increases in serum EPO and to a lesser extent TPO levels
- Absolute difference in IL-2 from baseline ([3]; cycle 6, 1 subject (101-039)): -1827 pg/mL
- Absolute difference in IL-6 from baseline ([3]; cycle 6, 1 subject (101-039)): -4719 pg/mL
- Effect on levels of pro-inflammatory cytokines (IL-6, IL-2, IL-8, TNF-a) ([3]; relative to baseline during treatment, dihydrochloride monohydrate): no significant changes on cytokine levels; also recorded: minimal effect on serum levels of proinflammatory cytokines; also recorded: no consistent changes
